Reference: patent publication US11555212B2, “Process for the production of sulfated phenolic compounds using modified Escerichia coli” (CysBio ApS, priority 2016, dated 2023)

Key:
Assay type in all cases: cell-based
SULT1A1 rat = target: T1, SULT1A1 rat (Rattus norvegicus, UniProt P17988); test: Titers of zosteric acid in Saccharomyces cerevisiae expressing a sulfotransferase; conditions: S. cerevisiae CEN.PK102-5B, modified Delft medium, 10 mM p-coumaric acid, overnight 30° C.
T1 construct: expressed in transfected cells; host or cells: Saccharomyces cerevisiae CEN.PK102-5B (plasmids pCBJ283, pCBJ284)
T1 sequence (P17988 whole entry): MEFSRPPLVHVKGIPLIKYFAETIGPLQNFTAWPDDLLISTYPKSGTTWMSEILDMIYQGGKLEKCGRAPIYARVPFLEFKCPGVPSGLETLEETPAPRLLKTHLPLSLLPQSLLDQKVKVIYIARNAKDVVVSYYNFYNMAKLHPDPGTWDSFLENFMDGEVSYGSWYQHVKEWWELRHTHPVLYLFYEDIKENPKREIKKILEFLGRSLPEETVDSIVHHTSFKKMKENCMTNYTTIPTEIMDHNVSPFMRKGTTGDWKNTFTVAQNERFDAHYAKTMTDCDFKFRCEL
Protocol: (§1) The concentration of p-courmaric acid (pHCA) and zosteric acid in the supernatant was quantified by high performance liquid chromatography (HPLC) and compared to chemical standards. HPLC was done on a Thermo setup using a HS-F5 column and mobile phases: 5 mM ammonium formate pH 4.0 (A) and acetonitrile (B) at 1.5 mL min-1, using a gradient elution starting at 5% B. From 0.5 min after injection to 7 min, the fraction of B increased linearly from 5% to 60%, and between 9.5 min and 9.6 the fraction of B decreased back to 5%, and remaining there until 12 min. pHCA and zosteric acid were quantified by measuring absorbance at 277 nm.
The gene encoding aryl sulfotransferase SULT1A (Example 1) was cloned after a TEF1 promoter into an episomal plasmid with a 2-micron origin of replication as follows. The gene was amplified by PCR using primers CBJP633 and CBJP634. Alternatively, the gene was codon-optimized for E. coli and synthesized by GeneArt and amplified by primers CBJP635 and CBJP636. The TEF1 promoter (Jensen et al., 2014, FEMS Yeast Res 14: 238-248) was amplified by PCR using the primers PTEF1_fw and PTEF1_rv. Plasmid pCfB132 (Jensen et al., supra) was digested by restriction enzymes AsiSI and Nt.Bsml. […]

SULT1A1 Equus caballus = test: Percent conversion of substrates by E. coli expressing a sulfotransferase; conditions: E. coli BL21(DE3)pLysS expressing SULT1A1 Equus caballus; M9; pHCA 100 μM, resveratrol 95 μM or kaempferol 87 μM; overnight 37° C.
Protocol: as §1
(§2) Different sulfotransferases were examined for their substrate specificities against three substrates. We tested the sulfotransferases mentioned in example 1, as well as additional ones. The genes encoding these were cloned as described in example 1 using the primers shown in the table below from cDNA libraries of the respective organisms, except for the SULT1A1 from rat (Rattus norvegicus) codon-optimized for E. coli (described above). The resulting vectors were transformed into BL21(DE3)pLysS.
(§3) The resulting strains were grown in M9 medium containing either 100 μM pHCA, 95 μM resveratrol or 87 μM kaempferol. The cultures were grown overnight at 37° C., 300 rpm. The following day the supernatants were isolated and examined by HPLC as described in example 1.

[1] = target: T2, SULT1A1 Rattus norvegicus (Rattus norvegicus, UniProt P17988); test: as above; conditions: M9, pHCA 100 μM, resveratrol 95 μM or kaempferol 87 μM, overnight 37° C.
T2 construct: 1, 3, 4, 5, and 6 were cloned amplified from liver tissue cDNA; expressed in transfected cells
T2 sequence (P17988 whole entry): as above
Protocol: as §1, §2, §3

SULT1A1 human = target: T3, SULT1A1 human (Homo sapiens, UniProt P50225, V223M); test: as above; conditions: E. coli BL21(DE3)pLysS expressing SULT1A1 human; M9; pHCA 100 μM, resveratrol 95 μM or kaempferol 87 μM; overnight 37° C.
T3 construct: expressed in transfected cells; host or cells: E. coli BL21(DE3)pLysS
T3 sequence (P50225 whole entry V223M): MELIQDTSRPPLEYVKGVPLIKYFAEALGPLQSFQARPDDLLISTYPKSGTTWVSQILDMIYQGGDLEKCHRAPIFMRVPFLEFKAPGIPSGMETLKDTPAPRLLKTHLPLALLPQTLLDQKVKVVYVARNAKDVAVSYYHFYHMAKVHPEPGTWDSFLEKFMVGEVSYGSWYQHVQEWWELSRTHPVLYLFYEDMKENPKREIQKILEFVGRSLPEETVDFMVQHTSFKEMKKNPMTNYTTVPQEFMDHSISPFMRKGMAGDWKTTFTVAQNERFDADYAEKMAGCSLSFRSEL
Protocol: as §1, §2, §3

[2] = system: SULT1E1 Gallus gallus domesticus; test: as above; conditions: E. coli BL21(DE3)pLysS expressing SULT1E1 Gallus gallus domesticus; M9; pHCA 100 μM, resveratrol 95 μM or kaempferol 87 μM; overnight 37° C.
Protocol: as §1, §2, §3

| SMILES | μM ZA (averages and standard deviations of replicate experiments) (SULT1A1 rat; SULT1A1 rat (codon optimized for E. coli)) [µM] | μM ZA (averages and standard deviations of replicate experiments) (SULT1A1 rat; SULT1A1 rat (native)) [µM] | Percent conversion of the substrate (SULT1A1 Equus caballus) [%] | Percent conversion of the substrate ([1]; E. coli BL21(DE3)pLysS expressing SULT1A1 Rattus norvegicus (Codon-optimized for E. coli)) [%] | Percent conversion of the substrate ([1]; E. coli BL21(DE3)pLysS expressing SULT1A1 Rattus norvegicus) [%] | Percent conversion of the substrate (SULT1A1 human) [%] | Percent conversion of the substrate [2] [%] |
| --- | --- | --- | --- | --- | --- | --- | --- |
| O=C(O)/C=C/c1ccc(OS(=O)(=O)O)cc1 [Zosteric acid, zosteric acid] | 46.2 ± 3.5 | 37.8 ± 5.7 |  |  |  |  |  |
| O=C(O)/C=C/c1ccc(O)cc1 [pHCA, p-coumaric acid] |  |  | 21 | 73 | 93 | 39 | 17 |
